The values below come from patent US11053226B2, “KRAS G12C inhibitors and methods of using the same” (Amgen Inc., priority 2018, dated 2021).

Where two headings read alike, the source gives them in different places.

For the test, the target named is GDP-bound KRAS protein (aa 1-169), containing both G12C and C118A amino acid substitutions (Homo sapiens (Human), UniProt P01116, C118A/G12C). As to the kind of experiment: Coupled Nucleotide Exchange Assay. The test is classed as biochemical. Here is the method: For compounds in Table 9, the following assay conditions were employed:
Coupled Nucleotide Exchange Assay:
The assay plates were then read on a PerkinElmer EnVision Multilabel Reader, using AlphaScreen® technology, and data were analyzed using a 4-parameter logistic model to calculate IC50 values.

Where [1] appears, read: read-out: Coupled Exchange IC50 (5 min), 5 min compound pre-incubation.
[2] abbreviates: read-out: Coupled Exchange IC50 (2 h), 2 h compound pre-incubation.
Setting [3] is: read-out: Coupled Exchange IC50 (20 h), 20 h compound pre-incubation.

Sequence of GDP-bound KRAS protein (aa 1-169), containing both G12C and C118A amino acid substitutions (P01116 other isoform, or with tags, fused parts or gaps G12C/C118A): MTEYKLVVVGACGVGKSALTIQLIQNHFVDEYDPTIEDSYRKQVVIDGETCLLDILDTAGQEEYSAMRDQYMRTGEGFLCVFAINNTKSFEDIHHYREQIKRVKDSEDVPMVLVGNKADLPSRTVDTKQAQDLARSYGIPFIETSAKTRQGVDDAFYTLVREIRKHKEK

Turning to `C=CC(=O)N1CC(NC(=O)Cn2ccc3cc(Br)ccc32)C1` [Example 180], the IC50 under setting [1] came out at 201 µM, the 50% inhibitory concentration (IC50) under setting [2] is more than 250 µM and the IC50 under setting [3] is 5.5 µM.

`C=CC(=O)N1CC(NC(=O)Cn2c(C(=O)OC)cc3cc(Br)ccc32)C1` [Example 181]: the IC50 under setting [2] was more than 250 µM and the IC50 under setting [3] worked out at 6.47 µM.

`C=CC(=O)N1CC(NC(=O)Cn2ccc3ccc(Br)cc32)C1` [Example 182]: the IC50 under setting [2] is more than 250 µM and the IC50 under setting [3] was more than 250 µM.

On to `C=CC(=O)N1CC(NC(=O)Cn2ccc3ccccc32)C1` [Example 183], for which the IC50 by setting is: under setting [2], more than 250 µM; under setting [3], more than 250 µM.

In the case of `C=CC(=O)N1CC(NC(=O)Cn2c(C=O)cc3cc(Br)ccc32)C1` [Example 185], the IC50 runs as follows: under setting [2], more than 250 µM; under setting [3], 15.9 µM.

With `C=CC(=O)N1CC(NC(=O)Cn2ccc3cc(Br)c(C)cc32)C1` [Example 186], the IC50 was more than 250 µM under setting [1], 26.6 µM under setting [2] and 4.47 µM under setting [3].

For `C=CC(=O)N1CC(NC(=O)Cn2ccc3cc(Cl)ccc32)C1` [Example 187], the IC50 runs as follows: under setting [1], more than 250 µM; under setting [2], more than 250 µM; under setting [3], 7.27 µM.

With `C=CC(=O)N1CC(NC(=O)Cn2ccc3cc(I)ccc32)C1` [Example 188], the IC50 worked out at 22.2 µM under setting [2] and 3.71 µM under setting [3].

For the compound `C=CC(=O)N1CC(NC(=O)Cn2c(C(=O)NCCc3ccccc3)cc3cc(Br)ccc32)C1` [Example 189], the IC50 under setting [2] was found to be 15.6 µM and the IC50 under setting [3] was determined as 1.62 µM.

`C=CC(=O)N1CC(NC(=O)Cn2ccc3cc(Br)cc(C)c32)C1` [Example 190]: the IC50 runs as follows: under setting [1], 193 µM; under setting [2], 16 µM; under setting [3], 1.76 µM.

`C=CC(=O)N1CC(NC(=O)Cn2ccc3cc(C#N)ccc32)C1` [Example 191]: the IC50 runs as follows: under setting [2], more than 250 µM; under setting [3], more than 250 µM.

For the compound `C=CC(=O)N1CC(NC(=O)Cn2c(C(=O)NCc3ccccc3)c(I)c3cc(Br)ccc32)C1` [Example 192], the IC50 is, setting by setting: under setting [2], 107 µM; under setting [3], 61.7 µM.

Regarding `C=CC(=O)N1CC(NC(=O)Cn2c3ccc(Br)cc3c3cc(Br)ccc32)C1` [Example 193], the IC50 under setting [2] is more than 250 µM and the IC50 under setting [3] was determined as 0.39 µM.

`C=CC(=O)N1CC(NC(=O)Cn2cc(C)c3cc(Br)ccc32)C1` [Example 194]: the IC50 was found to be 151 µM under setting [1], 30.1 µM under setting [2] and 2.23 µM under setting [3].

As to `C=CC(=O)N1CC(NC(=O)Cn2c3ccccc3c3ccccc32)C1` [Example 195], the IC50 runs as follows: under setting [2], more than 250 µM; under setting [3], 33.5 µM.

With `C=CC(=O)N1CC(NC(=O)Cn2c(-c3ncccn3)cc3cc(Cl)ccc32)C1` [Example 196], the IC50 by setting is: under setting [2], 45.6 µM; under setting [3], 6.09 µM.

Take `C=CC(=O)N1CC(NC(=O)Cn2cc(-c3cnn(C)c3)c3cc(Cl)ccc32)C1` [Example 197]: the IC50 under setting [2] was 24.5 µM and the IC50 under setting [3] was 5.51 µM.

`C=CC(=O)N1CC(NC(=O)Cn2ccc3cc(F)ccc32)C1` [Example 198]: the IC50 reads like this: under setting [2], more than 250 µM; under setting [3], more than 250 µM.

As to `C=CC(=O)N1CC(NC(=O)Cn2ccc3c(Cl)cccc32)C1` [Example 199], the IC50 by setting is: under setting [2], more than 250 µM; under setting [3], 21.6 µM.

For `C=CC(=O)N1CC(NC(=O)Cn2cc(C(=O)C(=O)OCC)c3ccccc32)C1` [Example 200], the IC50 under setting [2] was more than 250 µM and the IC50 under setting [3] is more than 250 µM.

`C=CC(=O)N1CC(NC(=O)Cn2cc(C(=O)C(=O)O)c3ccccc32)C1` [Example 201]: the IC50 under setting [2] is more than 250 µM and the IC50 under setting [3] was more than 250 µM.

Turning to `C=CC(=O)N1CC(NC(=O)Cn2ccc3ccc(Cl)cc32)C1` [Example 202], the IC50 runs as follows: under setting [2], more than 250 µM; under setting [3], more than 250 µM.

As to `C=CC(=O)N1CC(NC(=O)Cn2ccc3cccc(Cl)c32)C1` [Example 203], the IC50 is more than 250 µM under setting [2] and more than 250 µM under setting [3].
